What all share (conditions): time 12-16 hrs
Experiment [1] concerns Staphylococcus aureus. Put plainly: Antibacterial activity against the Staphylococcus aureus 16339 incubated for 12 to 16 hrs by paper disc diffusion assay. Type of experiment: functional. On the technique in general: Agar diffusion results depend on both activity and mobility in agar.
In experiment [2] the test system is Enterococcus faecalis. Put plainly: Antibacterial activity against Enterococcus faecalis assessed as inhibition on the growth incubated for 12 to 16 hrs by paper disc diffusion assay. The format is functional, organism-based.
In experiment [3] the test system is Klebsiella pneumoniae. Put plainly: Antibacterial activity against Klebsiella pneumoniae assessed as inhibition on the growth incubated for 12 to 16 hrs by paper disc diffusion assay. The format is functional, organism-based.
Experiment [4] relates to Escherichia coli. Briefly: Antibacterial activity against Escherichia coli assessed as inhibition on the growth incubated for 12 to 16 hrs by paper disc diffusion assay. The format is functional, organism-based.
The subject of experiment [5] is Staphylococcus aureus. Put plainly: Antibacterial activity against Staphylococcus aureus ATCC 29213 assessed as inhibition on the growth incubated for 12 to 16 hrs by paper disc diffusion assay. Type of experiment: functional, organism-based.
In experiment [6] the test system is Micrococcus luteus. Put plainly: Antibacterial activity against Micrococcus luteus assessed as inhibition on the growth incubated for 12 to 16 hrs by paper disc diffusion assay. Type of experiment: functional, organism-based.
The test system of experiment [7] is Staphylococcus aureus. Briefly: Antibacterial activity against methicillin-resistant Staphylococcus aureus ATCC 43300 assessed as inhibition on the growth incubated for 12 to 16 hrs by paper disc diffusion assay. Type of experiment: functional, organism-based.
Experiment [8] relates to Acinetobacter baumannii. Put plainly: Antibacterial activity against Acinetobacter baumannii assessed as inhibition on the growth incubated for 12 to 16 hrs by paper disc diffusion assay. Type of experiment: functional, organism-based.
Experiment [9] concerns Pseudomonas aeruginosa. Put plainly: Antibacterial activity against Pseudomonas aeruginosa assessed as inhibition on the growth incubated for 12 to 16 hrs by paper disc diffusion assay. Type of experiment: functional, organism-based.

Converted amounts (≈) assume the structure as drawn. The source made the active and inactive calls. The calls are words filed in the database; no cut-off is given here.

A word on the MIC: it is the lowest concentration that inhibits growth of the organism. A low value points to inhibition by little substance. Take `CN(C)[C@@H]1C(O)=C(C(N)=O)C(=O)[C@@]2(O)C(O)=C3C(=O)c4c(O)cccc4[C@@](C)(O)[C@H]3C[C@@H]12` [TETRACYCLINE]: the MIC in experiment [1] was 10 µg/mL (≈ 22.5 µM).
In the case of `C/C=C/C=C/C=C\c1ccccc1/C=C/C(=O)N[C@H](C)C(=O)N[C@@H]1COC(=O)[C@H](CC(=O)O)NC(=O)[C@H](CNC(=O)[C@@H](N)C(C)C)NC(=O)[C@H](C(C)C)NC(=O)[C@@H](CC(C)C)NC1=O`, the inhibition entry in experiment [2], in [3], in experiment [4], in experiment [5], in [6] and in experiment [7] was “inactive” in each case. In addition, the inhibition result in experiment [8] and in experiment [9] was “inactive” throughout. Inhibition of growth in experiment [1] (MIC) required 890 µg/mL (≈ 997 µM).

The values above are taken from ChEMBL document CHEMBL6182844, “LC-MS Guided Discovery and Biosynthetic Pathway of Coprisamides E-H, Cinnamic Acid-Containing Metabolites from the Marine Algae-Derived Streptomyces thermolineatus NAK03196” (2025).
